Key:
retinal tissue [1] = assay: Lesion alleviation in vivo with combination, fundus autofluorescence image; details: senescence-induced mice of Example 12
Method: Under an optical microscope (Olympus SZ51, Tokyo, Japan), a small hole was made in the limbus using a 30-gage sterile needle (BD Science, San Jose, USA). Then, a blunt 35-gage Hamilton microsyringe (Hamilton Company, NV, USA) was slowly inserted through the hole. After injecting 1 uL of 100 ng/μl Dox or 1.4 μg/μl Alu RNA into the subretinal space of C57BL/6N or C57BL/6J mice for 7 days, 20 ng/μl Nutlin-3 (#SML0580, St. Louis, USA) or vehicle (0.4% DMSO in normal saline) was administered to the retina on day 0 and day 3, and 50 mg/kg of Nutlin-3 and 100 mg/kg of nicotinamide were mixed at the ratio of 1:2 and the mixture was administered orally through the feeding needle catheter every day for 3 days.
After dilation of the eye with TRC-50 IX camera (Topcon, Tokyo, Japan) connected to a digital imaging system (Nikon, Japan) and HRA2 (Heidelberg Engineering, Heidelberg, Germany), the fundus autofluorescence image of the eye of the mice was captured.

retinal tissue [2] = assay: Lesion mitigation in vivo, color fundus and fundus autofluorescence images; details: 20 ng/μl Nutlin-3 intravitreal, senescence-induced mice
Method: (§1) After dilation of the eye with TRC-50 IX camera (Topcon, Tokyo, Japan) connected to a digital imaging system (Nikon, Japan) and HRA2 (Heidelberg Engineering, Heidelberg, Germany), the color fundus image and fundus autofluorescence image of the eye of the mice were each captured. […] In addition, in order to identify the cell tissue alignment state, ZO-1 expression was confirmed. Specifically, after blocking the retinal tissue with 1% BSA in PBS for 1 hour, fixed tissue or cells were incubated with primary antibody against ZO-1 (1:250, Invitrogen) overnight at 4° C. Stained tissues or cells were washed twice with PBS for 5 minutes and incubated with Alexa Fluor-conjugated secondary antibody for 2 hours at room temperature. As the secondary antibody, Alexa Fluor 555-conjugated goat anti-mouse IgG (Thermo Fisher Scientific, A-11029, Waltham, USA), Alexa Fluor 488-conjugated goat anti-mouse IgG (Thermo Fisher Scientific, A-21424), Alexa Fluor 555-conjugated goat anti-rabbit IgG (Thermo Fisher Scientific, A-21424), or Alexa Fluor 488-conjugated \u200b\u200b goat anti-rabbit IgG (Thermo Fisher Scientific, A-11034) was used. All secondary antibodies were used after being diluted at the ratio of 1:1000. […]

ZO-1 = assay: Cell tissue alignment state in vivo, ZO-1 expression; details: 20 ng/μl Nutlin-3 intravitreal, senescence-induced mice
Method: as §1

[3] = system: senescent cells of the retinal tissue; assay: Senescent cell killing in vivo, SA-β-gal staining of retinal tissue; details: 20 ng/μl Nutlin-3 intravitreal, 2 injections, Dox or Alu RNA induced mice
Source text: Anterior eyeballs were dissected in cold PBS.

[4] = system: Doxorubicin-treated senescent cells (SnCs) and non-senescent cells (ARPE-19); assay: Selective killing of senescent cells, propidium iodide staining; assay type: cell-based, human; details: PI staining
Method: To determine whether Nutlin-3 selectively killed senescent cells, the cells were treated with Nutlin-3 as follows and stained with propidium iodide.
Doxorubicin-treated senescent cells (SnCs) grown in the 24-well plate of Example 1 and non-senescent cells (non-SnCs) were treated with Nutlin-3 at different concentrations. After 24 hours, the medium was removed, and a medium including propidium iodide (PI, BD Biosciences, 51-66211E, 1.5 ug/ml) and Hoechst 33342 (Invitrogen, H1399, 1 ug/ml) was added to each well. After 30 minutes, images were obtained using an ultra-high-resolution confocal laser scanning microscope (Carl Zeiss, LSM 800).

p53 = p53 overexpression induction, western blot; assay type: cell-based, human; details: Nutlin-3 at different concentrations
Method: Doxorubicin-treated senescent cells (SnCs) grown in the 6-well plate of Example 1 and non-senescent cells (non-SnCs) were treated with different concentrations of Nutlin-3, and then, dissolved in RIPA buffer (Thermo Fisher Scientific, 89901) supplemented with protease inhibitor cocktail (Roche, 11697498001, Basel, Switzerland). The protein concentration of cells was quantified using BCA assay (Pierce, 23227, Waltham, USA). The same amount of protein was separated by SDS-PAGE in a 10-12% polyacrylamide gel and transferred to a polyvinylidene difluoride (PVDF) membrane. Then, the PVDF membrane was blocked with 5% skim milk powder in buffer for 1 hour, and anti-p53 (1: 500, Santa Cruz Biotechnology, SC-126) and anti-β-actin (1: 2000, Abcam, ab8226) antibodies were added thereto, incubated overnight at 4° C., and then incubated with horseradish peroxidase-conjugated anti-mouse IgG (1: 5000, Cell Signaling, 7076S) antibodies. The immunoreactive proteins were then visualized using a chemiluminescent substrate (Amersham, RDN2232, Little Chalfont, UK) and quantified with a densitometer using ImageJ software (NIH, USA). All experiments were repeated at least three times.

ZO-1 or APOE = assay: ZO-1 and drusen marker APOE expression in vivo with combination; details: senescence-induced mice of Example 12
Method: In addition, the expression of ZO-1 and the expression of the drusen marker APOE were confirmed to identify the cell tissue alignment state. Specifically, after blocking the retinal tissue with 1% BSA in PBS for 1 hour, fixed tissue or cells were incubated with primary antibody (1:50, Santa Cruz Biotechnology) against ZO-1 (1:250, Invitrogen) or APOE overnight at 4° C. Stained tissues or cells were washed twice with PBS for 5 minutes and incubated with Alexa Fluor-conjugated secondary antibody for 2 hours at room temperature. As the secondary antibody, Alexa Fluor 555-conjugated goat anti-mouse IgG (Thermo Fisher Scientific, A-11029, Waltham, USA), Alexa Fluor 488-conjugated goat anti-mouse IgG (Thermo Fisher Scientific, A-21424), Alexa Fluor 555-conjugated goat anti-rabbit IgG (Thermo Fisher Scientific, A-21424), or Alexa Fluor 488-conjugated \u200b\u200b goat anti-rabbit IgG (Thermo Fisher Scientific, A-11034) was used. All secondary antibodies were used after being diluted at the ratio of 1:1000. After incubation with the secondary antibody, tissues or cells were stained with nuclear dye DAPI (1:4000, Thermo Fisher Scientific, 62248) or Hoechst 33342 (1:3000, Thermo Fisher Scientific, H3570) in PBS for 15 minutes at room temperature. Thereafter, the tissues were then fixed in a fixing media (Ployscience, 18606-20, PA, USA).

retinal tissue [5] = assay: Drusen and Bruch's membrane thickness in vivo by TEM after Nutlin-3; set-up: species or system mice; details: doxorubicin and Nutlin-3 group
Method: The eyeball of mice in a group injected with a vehicle alone as in Example 9, a group injected with doxorubicin and a vehicle, and a group injected with doxorubicin and Nutlin-3, were fixed with a solution including 2% glutaraldehyde and 3.75% sucrose in 0.1 M sodium phosphate buffer (pH 7.0) for 30 minutes, and washed three times with 0.1 M PBS including 3.75% sucrose for 30 minutes to prepare a sample for TEM. The eye was fixed with a solution including 0.1% osmium tetraoxide and 5% sucrose in 0.05 M sodium phosphate buffer (pH 7.0) for 1 hour and rinsed three times with distilled water. The sample was then dehydrated in a series of acetone solutions (step 20%), which are graded, and embedded in an epoxy resin. The resin was polymerized at 70° C. for 12 hours. Ultra-thin sections (100 nm) were obtained using RMC CR-X ultra microtomes and then images thereof were obtained using a JEOL JEM-1400 electron microscope. The thickness of the Bruch's membrane was measured using TEM. The average thickness of the Bruch's film was determined by measuring the thicknesses in the nine images of respective groups, and the results are shown in FIGS. 16 and 17.

ARPE-19 cells = assay: Induction of senescent cells by doxorubicin, SA-β-gal staining; assay type: cell-based, human; details: 250 nM doxorubicin, 3 days
Source text: ARPE-19, a human retinal pigment epithelium (RPE) cell line, was induced into senescent cells using doxorubicin (Dox), which is used to form peroxide anions, induce DNA damage, and induce cell aging.
ARPE-19 cells were obtained from American Type Culture Collection (ATCC, CRL-2302, Va., U.S.A.), and cultured using a Dulbecco's modified Eagle's medium/nutrient mixture F-12 (WellGene, LM 002-04, Korea) supplemented with 10% fetal bovine serum (Invitrogen 16000, Waltham, U.S.A.) and penicillin-streptomycin (pen/strep, WellGene, LS 202-02) in a humidifying incubator having 5% CO2 at the temperature of 37° C. Cells were used after the cells were subcultured to 15-25 passages and reached the density population of about 70%-about 80%.
The cultured ARPE-19 cells were seeded in 24- or 6-well plates at a density of 25,000 or 100,000 cells per well prior to inducing cell aging with doxorubicin (Dox, Tocris Bioscience #2252, Bristol, UK). After 24 hours, 250 nM doxorubicin was added and the cells were incubated for another 3 days. After 3 days, the cells were placed in a doxorubicin-free medium and the medium was replaced daily. On day 10, senescent cells (SnCs) that were treated with doxorubicin and non-senescent cells (non-SnCs) that were not treated with doxorubicin but replaced with medium alone were seeded into 24- or 6-well plates for further experiments. […]

retinal tissue [6] = assay: Drusen and Bruch's membrane thickness by TEM after senescence induction with doxorubicin; assay type: in vivo, mice; details: 100 ng/μl Dox subretinal
Method: Under an optical microscope (Olympus SZ51, Tokyo, Japan), a small hole was made in the limbus using a 30-gage sterile needle (BD Science, San Jose, USA). Then, a blunt 35-gage Hamilton microsyringe (Hamilton Company, NV, USA) was slowly inserted through the hole. 1 uL of 100 ng/μl Dox or 1.4 μg/μl Alu RNA was injected into the subretinal space of C57BL/6N or C57BL/6J mice for 7 days. In addition, the eye of mice was fixed with a solution including 2% glutaraldehyde and 3.75% sucrose in 0.1 M sodium phosphate buffer (pH 7.0), for 30 minutes, and washed three times with 0.1 M PBS including 3.75% sucrose for 30 minutes to prepare a sample for TEM. The eye was fixed with a solution including 0.1% osmium tetraoxide and 5% sucrose in 0.05 M sodium phosphate buffer (pH 7.0) for 1 hour and rinsed three times with distilled water. The sample was then dehydrated in a series of acetone solutions (step 20%), which were graded, and embedded in an epoxy resin. The resin was polymerized at 70° C. for 12 hours. Ultra-thin sections (100 nm) were obtained using RMC CR-X ultra microtomes and then images thereof were obtained using a JEOL JEM-1400 electron microscope. The thickness of the Bruch's membrane was measured using TEM.

SMILES | waste in fundus autofluorescence image compared to vehicle group (retinal tissue [1]) | waste in fundus images compared to vehicle group (retinal tissue [2]) | cell tissue alignment (ZO-1) compared to vehicle group (ZO-1) | β-galactosidase expression compared to vehicle group [3] | senescent cells killed compared with non-senescent cells ([4]; 50 uM Nutlin-3, 24 hours) [times] | senescent cells killed compared with non-senescent cells ([4]; 75 uM Nutlin-3, 24 hours) [times] | expression of p53 in senescent cells (p53) | cell tissue alignment state (ZO-1) compared to vehicle group (ZO-1 or APOE) | amount of drusen compared to vehicle-only senescent cells (retinal tissue [5]) | thickness of the Bruch's membrane compared to vehicle-only senescent cells (retinal tissue [5]) | induction of ARPE-19 cells into senescent cells (SA-β-gal staining) (ARPE-19 cells) | amount of drusen after senescent cell induction (retinal tissue [6]) | thickness of the Bruch's membrane after senescent cell induction (retinal tissue [6])
COc1ccc(C2=N[C@@H](c3ccc(Cl)cc3)[C@@H](c3ccc(Cl)cc3)N2C(=O)N2CCNC(=O)C2)c(OC(C)C)c1 [Nutlin-3] | significantly reduced | significantly reduced | improved | low | 7 | 3 | further increased | improved | reduced | reduced | – | – | –
COc1cccc2c1C(=O)c1c(O)c3c(c(O)c1C2=O)C[C@@](O)(C(=O)CO)C[C@@H]3O[C@H]1C[C@H](N)[C@H](O)[C@H](C)O1 [doxorubicin] | – | – | – | – | – | – | – | – | – | – | induced to senescent cells | increased | increased

From US20230241056A1, “PHARMACEUTICAL COMPOSITION FOR TREATING MACULAR DEGENERATION INCLUDING IMIDAZOLINE DERIVATIVE COMPOUND AS ACTIVE INGREDIENT” (FUSION BIOTECHNOLOGY CO., LTD., priority 2021, published 2023)
